Results reported in patent US12303509B2, “Compounds for the treatment of BRAF-associated diseases and disorders” (Pfizer Inc., priority 2020, dated 2025).
Where a name gives a salt, the structure may show the parent alone.

Key:
H1755 cells = experiment: Cellular phospho-ERK inhibition assay in H1755 cells; assay type: cell-based; details: Homo sapiens, NCI-H1755, 2 hours treatment, read-out: H1755 Cell IC50
Experimental: A375 and H1755 cells were obtained from the American Type Culture Collection (ATCC, Rockville, MD). A375 cells were maintained in DMEM growth medium containing 10% FBS. H1755 cells were maintained in RPMI growth medium containing 10% FBS.
Cells were harvested according to standard protocols, counted and plated onto flat-bottom, 96-well tissue culture plates (Costar #3599) at 2.5×10^4 cells/well for A375 cells and 1.5×10^4 cells/well for H1755 cells in 100 μL/well of growth medium containing 10% FBS. After an overnight incubation at 37° C. with 5% CO2 cells were treated for 2 hours at 37° C., 5% CO2 with compounds prepared as a 9-point, 1:3.33 fold dilution series with final compound concentrations ranging from 66 pM-10 μM and a constant DMSO concentration of 0.25%. Control wells contained either 0.25% DMSO alone (uninhibited control) or 10 μM binimetinib (complete inhibition control). The levels of phosphorylated ERK are determined using an In Cell Western protocol: following compound incubation, growth medium was discarded, and cells were fixed with 0.4% formaldehyde in PBS for 20 minutes at room temperature. Cells were permeabilized with 100% methanol for 10 minutes at room temperature. Plates were washed with PBS containing 0.05% Tween-20 and blocked for 1 hour at room temperature with LI-COR Blocking Buffer (LI-COR Biosciences; Cat #927-40000). Plates were then incubated for 2 hours at room temperature with 50 μL of a 1:400 dilution of anti-phospho-ERK1/2 (Thr202/Tyr204) (Cell Signaling; Cat #9101) and a 1:1000 dilution of anti-GAPDH (Millipore; Cat #MAB374) in LI-COR blocking buffer containing 0.05% Tween-20. Plates were washed with PBS containing […] Tween-20 then incubated at room temperature for 1 hour with 50 μL of a 1:1000 dilution of anti-rabbit AlexaFluor 680 (Life Technologies; Cat #A21109) and a 1:1000 dilution of anti-mouse IRDye 800CW (LI-COR; Cat #926-32210) in LI-COR blocking buffer containing 0.05% Tween-20. Plates were analyzed by reading on an Odyssey CLx infrared scanner. For each well, the phospho-ERK signal was normalized to the GAPDH signal and converted to POC using the following equation:
[formula] • Where: • Xmax Average Uninhibited Controls • Xmin Average Complete Inhibition Controls IC50 values were then calculated using a 4-parameter fit in XLfit software and are provided in Table A1.

BCRP = BCRP (Homo sapiens (Human), UniProt Q9UNQ0); experiment: BCRP MDCKII permeability assay: efflux ratio; assay type: in vitro ADME; details: dog
[1] = target: full-length FLAG-tagged B-Raf(V600E) (Homo sapiens (Human), UniProt P15056, V600E); experiment: BRAF V600E enzyme assay (TR-FRET competitive displacement); assay type: binding; details: averaged IC50; TR-FRET tracer displacement, 60 min
Summary of the method: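 Displacement of 50 nM Tracer 1710 from 5 nM full-length N-terminally FLAG-tagged B-Raf(V600E), detected by TR-FRET with 0.5 nM Eu anti-FLAG antibody, in 25 mM HEPES pH 7.4, 10 mM MgCl2, 2% DMSO; 60 min at ~22 °C. Compounds 11-point, 3-fold from 10 μM; IC50 from 4-parameter fit at 50 POC.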

[2] = MDR1 LLC-PK1 and BCRP MDCKII permeability assay: permeability coefficient (Papp); assay type: in vitro ADME
Excerpt: (§1) Final organic concentration in the assay was 1%.

A375 cells = experiment: Cellular phospho-ERK inhibition assay in A375 cells; assay type: cell-based; details: Homo sapiens, A-375, A375 cells (head prints A357), 2 hours treatment, read-out: A357 cell IC50
Summary of the method: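 A375 (DMEM) or H1755 (RPMI) cells in 10% FBS treated 2 h at 37 °C with 9-point series, 66 pM–10 μM, 0.25% DMSO. Phospho-ERK1/2 (Thr202/Tyr204) measured by In Cell Western, normalised to GAPDH and to DMSO and 10 μM binimetinib controls; IC50 by 4-parameter fit.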

P-gp (MDR1) = P-gp (MDR1) (Homo sapiens (Human), UniProt P08183); experiment: MDR1 LLC-PK1 permeability assay: efflux ratio; assay type: in vitro ADME; details: pig
Excerpt: as §1

P-gp (MDR1), sequence (P08183 whole entry, species assumed): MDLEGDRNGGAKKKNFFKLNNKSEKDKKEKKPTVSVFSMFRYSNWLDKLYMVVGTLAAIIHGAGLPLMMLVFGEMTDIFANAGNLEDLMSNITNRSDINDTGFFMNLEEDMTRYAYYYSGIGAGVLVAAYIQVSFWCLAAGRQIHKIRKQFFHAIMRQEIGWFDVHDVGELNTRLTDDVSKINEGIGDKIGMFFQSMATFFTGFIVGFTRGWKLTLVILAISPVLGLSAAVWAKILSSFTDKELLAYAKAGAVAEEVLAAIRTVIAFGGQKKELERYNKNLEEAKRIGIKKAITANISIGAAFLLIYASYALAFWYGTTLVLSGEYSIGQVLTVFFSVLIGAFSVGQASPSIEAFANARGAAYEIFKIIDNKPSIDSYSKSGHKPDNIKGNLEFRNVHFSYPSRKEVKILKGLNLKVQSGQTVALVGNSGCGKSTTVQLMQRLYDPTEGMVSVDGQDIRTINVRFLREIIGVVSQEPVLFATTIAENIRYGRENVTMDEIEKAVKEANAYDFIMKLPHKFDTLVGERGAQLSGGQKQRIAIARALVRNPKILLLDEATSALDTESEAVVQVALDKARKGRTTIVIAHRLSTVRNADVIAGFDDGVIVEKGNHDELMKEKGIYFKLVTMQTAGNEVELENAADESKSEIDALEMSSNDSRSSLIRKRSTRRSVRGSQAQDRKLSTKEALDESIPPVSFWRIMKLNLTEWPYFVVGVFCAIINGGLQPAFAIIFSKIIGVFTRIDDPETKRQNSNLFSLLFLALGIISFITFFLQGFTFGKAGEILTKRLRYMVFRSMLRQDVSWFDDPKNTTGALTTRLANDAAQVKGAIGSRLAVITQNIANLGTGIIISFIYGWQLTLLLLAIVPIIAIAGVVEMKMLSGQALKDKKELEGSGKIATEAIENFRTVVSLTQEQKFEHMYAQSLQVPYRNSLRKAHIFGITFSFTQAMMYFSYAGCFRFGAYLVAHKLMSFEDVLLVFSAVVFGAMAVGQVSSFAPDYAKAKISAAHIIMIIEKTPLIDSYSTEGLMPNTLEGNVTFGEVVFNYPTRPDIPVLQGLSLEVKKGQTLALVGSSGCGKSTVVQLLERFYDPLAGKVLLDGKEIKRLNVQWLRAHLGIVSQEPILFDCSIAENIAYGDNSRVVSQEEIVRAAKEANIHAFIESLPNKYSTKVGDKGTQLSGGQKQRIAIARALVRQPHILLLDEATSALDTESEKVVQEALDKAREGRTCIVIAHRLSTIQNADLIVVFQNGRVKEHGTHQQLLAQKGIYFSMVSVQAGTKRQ
full-length FLAG-tagged B-Raf(V600E), sequence (P15056 whole entry V600E): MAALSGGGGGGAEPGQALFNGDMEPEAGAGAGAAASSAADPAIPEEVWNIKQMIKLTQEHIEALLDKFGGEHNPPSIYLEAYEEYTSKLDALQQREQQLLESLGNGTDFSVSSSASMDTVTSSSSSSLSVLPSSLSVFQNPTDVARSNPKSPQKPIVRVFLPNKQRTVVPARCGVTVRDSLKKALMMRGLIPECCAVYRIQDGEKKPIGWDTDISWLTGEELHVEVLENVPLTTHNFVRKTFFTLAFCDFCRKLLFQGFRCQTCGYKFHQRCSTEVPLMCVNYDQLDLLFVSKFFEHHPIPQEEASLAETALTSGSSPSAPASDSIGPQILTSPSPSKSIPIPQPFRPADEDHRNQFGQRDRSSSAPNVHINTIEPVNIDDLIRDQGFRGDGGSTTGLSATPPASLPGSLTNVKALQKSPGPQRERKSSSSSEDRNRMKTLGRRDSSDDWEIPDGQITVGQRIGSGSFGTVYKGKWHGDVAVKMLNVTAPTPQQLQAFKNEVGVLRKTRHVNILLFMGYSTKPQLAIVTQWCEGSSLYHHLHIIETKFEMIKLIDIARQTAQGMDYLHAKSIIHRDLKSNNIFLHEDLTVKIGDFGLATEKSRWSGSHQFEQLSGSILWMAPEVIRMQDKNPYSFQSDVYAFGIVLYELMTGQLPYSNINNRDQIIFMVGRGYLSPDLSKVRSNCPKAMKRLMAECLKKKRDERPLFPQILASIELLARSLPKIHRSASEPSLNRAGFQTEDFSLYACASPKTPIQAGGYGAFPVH
BCRP, sequence (Q9UNQ0 whole entry): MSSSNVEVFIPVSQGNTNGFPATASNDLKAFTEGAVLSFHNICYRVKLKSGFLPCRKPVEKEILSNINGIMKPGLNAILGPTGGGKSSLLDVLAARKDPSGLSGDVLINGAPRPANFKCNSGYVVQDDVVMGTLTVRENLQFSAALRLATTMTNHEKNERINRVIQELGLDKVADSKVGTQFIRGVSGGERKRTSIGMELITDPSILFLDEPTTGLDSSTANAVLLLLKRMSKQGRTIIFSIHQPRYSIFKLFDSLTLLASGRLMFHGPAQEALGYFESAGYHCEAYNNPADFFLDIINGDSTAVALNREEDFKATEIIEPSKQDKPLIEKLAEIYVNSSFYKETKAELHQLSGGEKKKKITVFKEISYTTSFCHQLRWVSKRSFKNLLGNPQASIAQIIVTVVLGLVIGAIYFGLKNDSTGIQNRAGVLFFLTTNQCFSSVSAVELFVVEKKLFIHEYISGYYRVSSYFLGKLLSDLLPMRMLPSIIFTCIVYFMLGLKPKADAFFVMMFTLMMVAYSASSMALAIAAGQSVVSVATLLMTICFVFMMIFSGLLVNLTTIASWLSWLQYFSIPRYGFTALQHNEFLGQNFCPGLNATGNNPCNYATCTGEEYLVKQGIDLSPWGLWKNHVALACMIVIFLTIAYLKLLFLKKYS

SMILES | IC50 (H1755 cells) [nM] | efflux ratio at 2 h, 1 µM (BCRP) | IC50 [1] [nM] | Papp at 2 h, 1 µM [2] [×10⁻⁶ cm/s] | IC50 (A375 cells) [nM] | efflux ratio at 2 h, 1 µM (P-gp (MDR1))
CO[C@@H]1CN(S(=O)(=O)Nc2ccc(F)c(Nc3ccc4ncn(C)c(=O)c4c3F)c2Cl)C[C@@H]1F (relative stereo) [Example 15, cis-N-(2-chloro-4-fluoro-3-((5-fluoro-3-methyl-4-oxo-3,4-dihydroquinazolin-6-yl)amino)phenyl)-3-fluoro-4-methoxypyrrolidine-1-sulfonamide] | 16 | 13.4 | 6 | 26 | 2 | 6.8
CO[C@H]1CN(S(=O)(=O)Nc2ccc(F)c(Nc3ccc4ncn(C)c(=O)c4c3Br)c2Cl)C[C@H]1F (relative stereo) [Example 16, cis-N-(3-((5-bromo-3-methyl-4-oxo-3,4-dihydroquinazolin-6-yl)amino)-2-chloro-4-fluorophenyl)-3-fluoro-4-methoxypyrrolidine-1-sulfonamide trifluoroacetate] | 43 | 4.5 | 6 | 29 | 7 | 5.9
CO[C@@H]1CCN(S(=O)(=O)Nc2ccc(F)c(Nc3ccc4ncn(C)c(=O)c4c3C)c2Cl)C1 [Example 1, (R)-N-(2-chloro-3-((3,5-dimethyl-4-oxo-3,4-dihydroquinazolin-6-yl)amino)-4-fluorophenyl)-3-methoxypyrrolidine-1-sulfonamide] | 103 | 1.4 | 60 | 31 | 32 | 1.7
CO[C@@H]1CCN(S(=O)(=O)Nc2ccc(F)c(Nc3ccc4ncn(C)c(=O)c4c3F)c2Cl)C1 [Example 5, (R)-N-(2-chloro-4-fluoro-3-((5-fluoro-3-methyl-4-oxo-3,4-dihydroquinazolin-6-yl)amino)phenyl)-3-methoxypyrrolidine-1-sulfonamide] | 20 | 3.4 | 14 | 27 | 4 | 3.8
Cn1cnc2ccc(Nc3cc(Cl)cc(NS(=O)(=O)N4CC[C@@H](F)C4)c3F)c(Cl)c2c1=O [Example 56, (R)-N-(5-chloro-3-((5-chloro-3-methyl-4-oxo-3,4-dihydroquinazolin-6-yl)amino)-2-fluorophenyl)-3-fluoropyrrolidine-1-sulfonamide trifluoroacetate] | 23 | 2.8 | 1 |  | 4 | 2.3
Cn1cnc2ccc(Oc3c(F)ccc(NS(=O)(=O)N4CC(F)C4)c3Cl)c(Cl)c2c1=O [Example 120, N-(2-chloro-3-((5-chloro-3-methyl-4-oxo-3,4-dihydroquinazolin-6-yl)oxy)-4-fluorophenyl)-3-fluoroazetidine-1-sulfonamide] | 69 |  | 2 | 30 | 4 | 3.8
Cn1cnc2ccc(Nc3c(F)ccc(NS(=O)(=O)N4CC(COC(F)F)C4)c3Cl)c(F)c2c1=O [Example 139, N-(2-chloro-4-fluoro-3-((5-fluoro-3-methyl-4-oxo-3,4-dihydroquinazolin-6-yl)amino)phenyl)-3-((difluoromethoxy)methyl)azetidine-1-sulfonamide trifluoroacetate] | 10 |  | 4 | 32 | 3 | 5.3

Second part, the compound after the results:

IC50 (H1755 cells) [nM] | efflux ratio at 2 h, 1 µM (BCRP) | IC50 [1] [nM] | Papp at 2 h, 1 µM [2] [×10⁻⁶ cm/s] | IC50 (A375 cells) [nM] | efflux ratio at 2 h, 1 µM (P-gp (MDR1)) | SMILES
18 | 4.9 | 4 | 40 | 2 | 3 | CO[C@@H]1CN(S(=O)(=O)Nc2ccc(F)c(Nc3ccc4ncn(C)c(=O)c4c3Cl)c2Cl)C[C@@H]1F (relative stereo) [Example 18, cis-N-(2-chloro-3-((5-chloro-3-methyl-4-oxo-3,4-dihydroquinazolin-6-yl)amino)-4-fluorophenyl)-3-fluoro-4-methoxypyrrolidine-1-sulfonamide]
58 | 1 | 36 | 31 | 15 | 1.2 | CCN(C)S(=O)(=O)Nc1ccc(F)c(Nc2ccc3ncn(C)c(=O)c3c2Cl)c1Cl [Example 2]
61 | 1.5 | 30 | 33 | 16 | 1.3 | CN(C)S(=O)(=O)Nc1ccc(F)c(Nc2ccc3ncn(C)c(=O)c3c2Cl)c1Cl [Example 3, N-(2-chloro-3-((5-chloro-3-methyl-4-oxo-3,4-dihydroquinazolin-6-yl)amino)-4-fluorophenyl)-(N,N-dimethyl)-sulfamide]
80 | 2.1 | 32 | 27 | 19 | 1.6 | CCN(C)S(=O)(=O)Nc1ccc(F)c(Nc2ccc3ncn(C)c(=O)c3c2F)c1Cl [Example 4, N-(2-chloro-4-fluoro-3-((5-fluoro-3-methyl-4-oxo-3,4-dihydroquinazolin-6-yl)amino)phenyl)-(N-ethyl-N-methyl)-sulfamide]
16 | 5.1 |  | 34 | 2 | 3.8 | Cn1cnc2ccc(Nc3c(F)ccc(NS(=O)(=O)N4CC(F)C4)c3Cl)c(F)c2c1=O [Example 127, N-(2-chloro-4-fluoro-3-((5-fluoro-3-methyl-4-oxo-3,4-dihydroquinazolin-6-yl)amino)phenyl)-3-fluoroazetidine-1-sulfonamide trifluoroacetate]
33 |  | 13 | 36 | 3 | 2.7 | COCC1CN(S(=O)(=O)Nc2ccc(F)c(Nc3ccc4ncn(C)c(=O)c4c3Cl)c2Cl)C1 [Example 132, N-(2-chloro-3-((5-chloro-3-methyl-4-oxo-3,4-dihydroquinazolin-6-yl)amino)-4-fluorophenyl)-3-(methoxymethyl)azetidine-1-sulfonamide trifluoroacetate]
11 |  | 5 | 33 | 1 | 5.7 | COCC1CN(S(=O)(=O)Nc2ccc(F)c(Nc3ccc4ncn(C)c(=O)c4c3F)c2Cl)C1 [Example 133, N-(2-chloro-4-fluoro-3-((5-fluoro-3-methyl-4-oxo-3,4-dihydroquinazolin-6-yl)amino)phenyl)-3-(methoxymethyl)azetidine-1-sulfonamide trifluoroacetate]
1770 | 1.2 |  | 34 | 99 | 1.4 | Cc1c(Nc2c(F)ccc(NS(=O)(=O)N3CC(C)(F)C3)c2Cl)ccc2ncn(C)c(=O)c12 [Example 155, N-(2-chloro-3-((3,5-dimethyl-4-oxo-3,4-dihydroquinazolin-6-yl)amino)-4-fluorophenyl)-3-fluoro-3-methylazetidine-1-sulfonamide trifluoroacetate]
